# Reference: US12077503B2, “Substituted cyclic amides and their use as herbicides” (FMC CORPORATION, priority 2015, dated 2024)
# Like-named read-outs stand apart in the source and are kept apart here.
# Experiments:
# Assay type in all cases: in vivo
# [1] = system: pigweed (Amaranthus retroflexus); assay: Test A preemergence; conditions: Amaranthus retroflexus, pre-emergence, 240 h; for pest or weed control at 125 g/ha: 125 g ai/ha
# [2] = system: ragweed (common ragweed, Ambrosia elatior); assay: Test A preemergence; conditions: Ambrosia artemisiifolia, pre-emergence, 240 h; for pest or weed control at 125 g/ha: 125 g ai/ha
# Method in brief: (§1)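 Preemergence soil spray on seeded pots or post-emergence spray on 1–2 leaf plants, in loam–sand blend. Greenhouse ~10 d. Visual rating 0–100 against untreated plants.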
# [3] = system: giant foxtail (Setaria faberii); assay: Test A preemergence; conditions: Setaria faberi, pre-emergence, 240 h; for pest or weed control at 125 g/ha: 125 g ai/ha
# Method in brief: as §1
# [4] = system: barnyardgrass (Echinochloa crus-galli); assay: Test A preemergence; conditions: Echinochloa crus-galli, pre-emergence, 240 h; for pest or weed control at 125 g/ha: 125 g ai/ha
# Method in brief: as §1
# [5] = system: ryegrass, Italian (Italian ryegrass, Lolium multiflorum); assay: Test A preemergence; conditions: Lolium multiflorum, pre-emergence, 240 h; for pest or weed control at 125 g/ha: 125 g ai/ha
# Method in brief: as §1
# [6] = system: Kochia (Kochia scoparia); assay: Test A preemergence; conditions: Bassia scoparia, pre-emergence, 240 h; for pest or weed control at 125 g/ha: 125 g ai/ha
# Method in brief: as §1
# [7] = system: corn (Zea mays); assay: Test A postemergence; conditions: Zea mays, post-emergence, 240 h; for plant injury at 125 g/ha: 125 g ai/ha
# Method in brief: as §1
# [8] = system: pigweed (Amaranthus retroflexus); assay: Test A postemergence; conditions: Amaranthus retroflexus, post-emergence, 240 h; for pest or weed control at 125 g/ha: 125 g ai/ha
# Method in brief: as §1
# [9] = system: Kochia (Kochia scoparia); assay: Test A postemergence; conditions: Bassia scoparia, post-emergence, 240 h; for pest or weed control at 125 g/ha: 125 g ai/ha
# Method in brief: as §1
# [10] = system: Galium (catchweed bedstraw, Galium aparine); assay: Test A postemergence; conditions: Galium, post-emergence, 240 h; for pest or weed control at 125 g/ha: 125 g ai/ha
# Method in brief: as §1
# [11] = system: ducksalad (Heteranthera limosa); assay: Test B flooded paddy test; conditions: Heteranthera limosa, Flood, 250 g ai/ha, read-out: Ducksalad plant response rating
# Method in brief: (§2)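 Rating scale 0–100 (visual, vs untreated controls) after a 13–15 d greenhouse period; application to the flood layer, 3 cm above soil and maintained; plants at 2-leaf stage when treated.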
# [12] = system: rice (Oryra sativa); assay: Test B flooded paddy test; conditions: Oryza sativa, Flood, 250 g ai/ha, read-out: Rice plant response rating
# Method in brief: as §2
# [13] = system: barnyardgrass (Echinochloa crus-galli); assay: Test B flooded paddy test; conditions: Echinochloa crus-galli, Flood, 250 g ai/ha, read-out: Barnyardgrass plant response rating
# Method in brief: as §2
# [14] = system: sedge, umbrella (small-flower umbrella sedge, Cyperus difformis); assay: Test B flooded paddy test; conditions: Cyperus difformis, Flood, 250 g ai/ha, read-out: Sedge, Umbrella plant response rating
# Method in brief: as §2
# [15] = scale of 0 to 100 where 0 is no effect and 100 is complete control
# [16] = 0 to 100 scale where 0 is no effect and 100 is complete control
structure (smiles),measurement,setting,value
CN1CC[C@H](c2cccc(OC(F)(F)F)c2)[C@@H](C(=O)Nc2ccc(F)c(F)c2F)C1=O [Compound 808],pest or weed control at 125 g/ha,"[1]; preemergence, visual rating after approx. 10 d, 0 to 100 scale where 0 is no effect and 100 is complete control, read-out: Plant response rating, Pigweed",0%
same,pest or weed control at 31 g/ha,"[1]; Preemergence, 31 g ai/ha, 0 to 100 scale (0 no effect, 100 complete control), read-out: Plant response rating, Pigweed",0%
same,pest or weed control at 125 g/ha,"[2]; preemergence, visual rating after approx. 10 d, 0 to 100 scale where 0 is no effect and 100 is complete control, read-out: Plant response rating, Ragweed",0%
same,pest or weed control at 31 g/ha,"[2]; Preemergence, 31 g ai/ha, 0 to 100 scale (0 no effect, 100 complete control), read-out: Plant response rating, Ragweed",0%
same,pest or weed control at 125 g/ha,"[3]; preemergence, visual rating after approx. 10 d, 0 to 100 scale where 0 is no effect and 100 is complete control, read-out: Plant response rating, Foxtail, Giant",90%
same,pest or weed control at 31 g/ha,"[3]; Preemergence, 31 g ai/ha, 0 to 100 scale (0 no effect, 100 complete control), read-out: Plant response rating, Foxtail, Giant",70%
same,pest or weed control at 125 g/ha,"[4]; preemergence, visual rating after approx. 10 d, 0 to 100 scale where 0 is no effect and 100 is complete control, read-out: Plant response rating, Barnyardgrass",100%
same,pest or weed control at 31 g/ha,"[4]; Preemergence, 31 g ai/ha, 0 to 100 scale (0 no effect, 100 complete control), read-out: Plant response rating, Barnyardgrass",100%
same,pest or weed control at 125 g/ha,"[5]; preemergence, visual rating after approx. 10 d, 0 to 100 scale where 0 is no effect and 100 is complete control, read-out: Plant response rating, Ryegrass, Italian",30%
same,pest or weed control at 31 g/ha,"[5]; Preemergence, 31 g ai/ha, 0 to 100 scale (0 no effect, 100 complete control), read-out: Plant response rating, Ryegrass, Italian",0%
same,pest or weed control at 125 g/ha,"[6]; preemergence, visual rating after approx. 10 d, 0 to 100 scale where 0 is no effect and 100 is complete control, read-out: Plant response rating, Kochia",0%
same,pest or weed control at 31 g/ha,"[6]; Preemergence, 31 g ai/ha, 0 to 100 scale (0 no effect, 100 complete control), read-out: Plant response rating, Kochia",0%
same,plant injury at 125 g/ha,"[7]; postemergence, visual injury rating after approximately 10 d, read-out: Corn plant response rating (0 to 100 scale, 0 no effect, 100 complete control)",0%
same,"Corn plant response rating (crop injury, 0 = no effect, 100 = complete kill) at 31 g/ha","[7]; Postemergence, 31 g ai/ha, visual injury after approx. 10 d, 0 to 100 scale, 0 no effect, 100 complete control",0%
same,pest or weed control at 125 g/ha,"[8]; postemergence, visual injury rating after approximately 10 d, read-out: Pigweed plant response rating (0 to 100 scale, 0 no effect, 100 complete control)",0%
same,pest or weed control at 31 g/ha,"[8]; Postemergence, 31 g ai/ha, visual injury after approx. 10 d, 0 to 100 scale, 0 no effect, 100 complete control, read-out: Plant response rating, Pigweed",0%
same,pest or weed control at 125 g/ha,"[9]; postemergence, visual injury rating after approximately 10 d, read-out: Kochia plant response rating (0 to 100 scale, 0 no effect, 100 complete control)",0%
same,pest or weed control at 31 g/ha,"[9]; Postemergence, 31 g ai/ha, visual injury after approx. 10 d, 0 to 100 scale, 0 no effect, 100 complete control, read-out: Plant response rating, Kochia",0%
same,pest or weed control at 125 g/ha,"[10]; postemergence, visual injury rating after approximately 10 d, read-out: Galium plant response rating (0 to 100 scale, 0 no effect, 100 complete control)",0%
same,pest or weed control at 31 g/ha,"[10]; Postemergence, 31 g ai/ha, visual injury after approx. 10 d, 0 to 100 scale, 0 no effect, 100 complete control, read-out: Plant response rating, Galium",0%
same,pest or weed control at 250 g/ha,[11]; [15],100%
same,pest or weed control at 250 g/ha,[12]; [15],15%
same,pest or weed control at 250 g/ha,[13]; [15],70%
same,pest or weed control at 250 g/ha,[14]; [15],0%
CSc1ccccc1NC(=O)[C@H]1C(=O)N(C)C[C@@H]1c1ccc(F)cc1 [Compound 1236],pest or weed control at 125 g/ha,"[1]; preemergence, visual injury rating, 0 to 100 scale where 0 is no effect and 100 is complete control, approximately 10 d, read-out: Pigweed plant response rating",60%
same,pest or weed control at 500 g/ha,"[1]; 500 g ai/ha, preemergence, 0 to 100 scale where 0 is no effect and 100 is complete control, read-out: Pigweed plant response rating",90%
same,pest or weed control at 125 g/ha,"[2]; preemergence, visual injury rating, 0 to 100 scale where 0 is no effect and 100 is complete control, approximately 10 d, read-out: Ragweed plant response rating",0%
same,pest or weed control at 500 g/ha,"[2]; 500 g ai/ha, preemergence, 0 to 100 scale where 0 is no effect and 100 is complete control, read-out: Ragweed plant response rating",30%
same,pest or weed control at 125 g/ha,"[3]; preemergence, visual injury rating, 0 to 100 scale where 0 is no effect and 100 is complete control, approximately 10 d, read-out: Foxtail, Giant plant response rating",90%
same,pest or weed control at 500 g/ha,"[3]; 500 g ai/ha, preemergence, 0 to 100 scale where 0 is no effect and 100 is complete control, read-out: Foxtail, Giant plant response rating",100%
same,pest or weed control at 125 g/ha,"[4]; preemergence, visual injury rating, 0 to 100 scale where 0 is no effect and 100 is complete control, approximately 10 d, read-out: Barnyardgrass plant response rating",90%
same,pest or weed control at 500 g/ha,"[4]; 500 g ai/ha, preemergence, 0 to 100 scale where 0 is no effect and 100 is complete control, read-out: Barnyardgrass plant response rating",100%
same,pest or weed control at 125 g/ha,"[5]; preemergence, visual injury rating, 0 to 100 scale where 0 is no effect and 100 is complete control, approximately 10 d, read-out: Ryegrass, Italian plant response rating",30%
same,pest or weed control at 500 g/ha,"[5]; 500 g ai/ha, preemergence, 0 to 100 scale where 0 is no effect and 100 is complete control, read-out: Ryegrass, Italian plant response rating",80%
same,pest or weed control at 125 g/ha,"[6]; preemergence, visual injury rating, 0 to 100 scale where 0 is no effect and 100 is complete control, approximately 10 d, read-out: Kochia plant response rating",20%
same,pest or weed control at 500 g/ha,"[6]; 500 g ai/ha, preemergence, 0 to 100 scale where 0 is no effect and 100 is complete control, read-out: Kochia plant response rating",90%
same,plant injury at 125 g/ha,"[7]; postemergence, visual injury vs untreated controls after approx. 10 d, 0 = no effect, 100 = complete control, read-out: Corn plant response rating (0 to 100 scale)",60%
same,plant injury at 500 g/ha,"[7]; 500 g ai/ha, postemergence, 0 to 100 scale, 0 is no effect, 100 is complete control, read-out: Corn plant response rating",90%
same,pest or weed control at 125 g/ha,"[8]; postemergence, visual injury vs untreated controls after approx. 10 d, 0 = no effect, 100 = complete control, read-out: Pigweed plant response rating (0 to 100 scale)",20%
same,pest or weed control at 500 g/ha,"[8]; 500 g ai/ha, postemergence, 0 to 100 scale, 0 is no effect, 100 is complete control, read-out: Pigweed plant response rating",40%
same,pest or weed control at 125 g/ha,"[9]; postemergence, visual injury vs untreated controls after approx. 10 d, 0 = no effect, 100 = complete control, read-out: Kochia plant response rating (0 to 100 scale)",20%
same,pest or weed control at 500 g/ha,"[9]; 500 g ai/ha, postemergence, 0 to 100 scale, 0 is no effect, 100 is complete control, read-out: Kochia plant response rating",30%
same,pest or weed control at 125 g/ha,"[10]; postemergence, visual injury vs untreated controls after approx. 10 d, 0 = no effect, 100 = complete control, read-out: Galium plant response rating (0 to 100 scale)",50%
same,pest or weed control at 500 g/ha,"[10]; 500 g ai/ha, postemergence, 0 to 100 scale, 0 is no effect, 100 is complete control, read-out: Galium plant response rating",60%
same,pest or weed control at 250 g/ha,[11]; [16],100%
same,pest or weed control at 250 g/ha,[12]; [16],35%
same,pest or weed control at 250 g/ha,[13]; [16],65%
same,pest or weed control at 250 g/ha,[14]; [16],0%
